Measurements as given in ChEMBL document CHEMBL4308841, “Synthesis, in vitro antiproliferative activity, and kinase inhibitory effects of pyrazole-containing diarylureas and diarylamides” (Eur J Med Chem, 2018).

What was measured:
HOP-62 [1] = test: Growth inhibition of human HOP62 cells incubated for 48 hrs by sulforhodamine B assay; type: functional, cell-based; settings: HOP-62, 48 h
OVCAR-3 [2] = test: Growth inhibition of human OVCAR3 cells incubated for 48 hrs by sulforhodamine B assay; type: functional, cell-based; settings: OVCAR-3, 48 h
SN12C [3] = test: Growth inhibition of human SN12C cells incubated for 48 hrs by sulforhodamine B assay; type: functional, cell-based
CCRF-CEM = test: Growth inhibition of human CCRF-CEM cells assessed as cell growth at 0.01 uM incubated for 48 hrs by sulforhodamine B assay relative to control; type: functional; settings: read-out: Activity
HCC 2998 = test: Growth inhibition of human HCC2998 cells assessed as cell growth at 0.01 uM incubated for 48 hrs by sulforhodamine B assay relative to control; type: functional; settings: HCC 2998, 48 h, read-out: Activity
MDA-MB-435 = test: Growth inhibition of human MDA-MB-435 cells assessed as cell growth at 0.01 uM incubated for 48 hrs by sulforhodamine B assay relative to control; type: functional; settings: MDA-MB-435, 48 h, read-out: Activity
SN12C [4] = test: Growth inhibition of human SN12C cells assessed as cell growth at 0.01 uM incubated for 48 hrs by sulforhodamine B assay relative to control; type: functional; settings: read-out: Activity
MDA-MB-468 = test: Growth inhibition of human MDA-MB-468 cells assessed as cell growth at 0.01 uM incubated for 48 hrs by sulforhodamine B assay relative to control; type: functional; settings: MDA-MB-468, 48 h, read-out: Activity
NCI-H460 [5] = test: Growth inhibition of human NCI-H460 cells assessed as cell growth at 0.1 uM incubated for 48 hrs by sulforhodamine B assay relative to control; type: functional; settings: NCI-H460, 48 h, read-out: Activity
SF-295 = test: Growth inhibition of human SF295 cells assessed as cell growth at 0.1 uM incubated for 48 hrs by sulforhodamine B assay relative to control; type: functional; settings: SF-295, 48 h, read-out: Activity
SNB-19 [6] = test: Growth inhibition of human SNB19 cells assessed as cell growth at 0.1 uM incubated for 48 hrs by sulforhodamine B assay relative to control; type: functional; settings: SNB-19, 48 h, read-out: Activity
NCI/ADR-RES = test: Growth inhibition of human NCI/ADR-RES cells assessed as cell growth at 0.1 uM incubated for 48 hrs by sulforhodamine B assay relative to control; type: functional; settings: read-out: Activity
CAKI-1 = test: Growth inhibition of human Caki1 cells assessed as cell growth at 0.1 uM incubated for 48 hrs by sulforhodamine B assay relative to control; type: functional; settings: CAKI-1, 48 h, read-out: Activity
DU-145 [7] = test: Growth inhibition of human DU145 cells assessed as cell growth at 0.1 uM incubated for 48 hrs by sulforhodamine B assay relative to control; type: functional; settings: DU-145, 48 h, read-out: Activity
MDA-MB-231 = test: Growth inhibition of human MDA-MB-231 cells assessed as cell growth at 0.1 uM incubated for 48 hrs by sulforhodamine B assay relative to control; type: functional; settings: MDA-MB-231, 48 h, read-out: Activity
HOP-62 [8] = test: Growth inhibition of human HOP62 cells assessed as cell growth at 1 uM incubated for 48 hrs by sulforhodamine B assay relative to control; type: functional; settings: HOP-62, 48 h, read-out: Activity
NCI-H322M = test: Growth inhibition of human NCI-H322M cells assessed as cell growth at 1 uM incubated for 48 hrs by sulforhodamine B assay relative to control; type: functional; settings: read-out: Activity
NCI-H460 [9] = test: Growth inhibition of human NCI-H460 cells assessed as cell growth at 1 uM incubated for 48 hrs by sulforhodamine B assay relative to control; type: functional; settings: NCI-H460, 48 h, read-out: Activity
COLO 205 = test: Growth inhibition of human COLO205 cells assessed as cell growth at 1 uM incubated for 48 hrs by sulforhodamine B assay relative to control; type: functional; settings: COLO 205, 48 h, read-out: Activity
SF-268 = test: Growth inhibition of human SF268 cells assessed as cell growth at 1 uM incubated for 48 hrs by sulforhodamine B assay relative to control; type: functional; settings: SF-268, 48 h, read-out: Activity
SK-MEL-2 = test: Growth inhibition of human SK-MEL-2 cells assessed as cell growth at 1 uM incubated for 48 hrs by sulforhodamine B assay relative to control; type: functional; settings: SK-MEL-2, 48 h, read-out: Activity
OVCAR-3 [10] = test: Growth inhibition of human OVCAR3 cells assessed as cell growth at 1 uM incubated for 48 hrs by sulforhodamine B assay relative to control; type: functional; settings: OVCAR-3, 48 h, read-out: Activity
SR = test: Growth inhibition of human SR cells assessed as cell growth at 100 uM incubated for 48 hrs by sulforhodamine B assay relative to control; type: functional; settings: read-out: Activity
HOP-62 [11] = test: Growth inhibition of human HOP62 cells assessed as cell growth at 100 uM incubated for 48 hrs by sulforhodamine B assay relative to control; type: functional; settings: HOP-62, 48 h, read-out: Activity
NCI-H226 = test: Growth inhibition of human NCI-H226 cells assessed as cell growth at 100 uM incubated for 48 hrs by sulforhodamine B assay relative to control; type: functional; settings: NCI-H226, 48 h, read-out: Activity
SF-539 = test: Growth inhibition of human SF539 cells assessed as cell growth at 100 uM incubated for 48 hrs by sulforhodamine B assay relative to control; type: functional; settings: SF-539, 48 h, read-out: Activity
SNB-19 [12] = test: Growth inhibition of human SNB19 cells assessed as cell growth at 100 uM incubated for 48 hrs by sulforhodamine B assay relative to control; type: functional; settings: SNB-19, 48 h, read-out: Activity
UACC-257 = test: Growth inhibition of human UACC257 cells assessed as cell growth at 100 uM incubated for 48 hrs by sulforhodamine B assay relative to control; type: functional; settings: UACC-257, 48 h, read-out: Activity
IGROV-1 = test: Growth inhibition of human IGROV1 cells assessed as cell growth at 100 uM incubated for 48 hrs by sulforhodamine B assay relative to control; type: functional; settings: IGROV-1, 48 h, read-out: Activity
786-0 = test: Growth inhibition of human 786-0 cells assessed as cell growth at 100 uM incubated for 48 hrs by sulforhodamine B assay relative to control; type: functional; settings: 786-0, 48 h, read-out: Activity
A498 = test: Growth inhibition of human A498 cells assessed as cell growth at 100 uM incubated for 48 hrs by sulforhodamine B assay relative to control; type: functional; settings: A498, 48 h, read-out: Activity
DU-145 [13] = test: Growth inhibition of human DU145 cells assessed as cell growth at 100 uM incubated for 48 hrs by sulforhodamine B assay relative to control; type: functional; settings: DU-145, 48 h, read-out: Activity
[14] = read-out: LC50 (the source's name)
[15] = read-out: pLC50 (the source's name) (converted)

With `COc1cc(Cl)cc(-c2nn(-c3cccc(NC(=O)Nc4cccc(C(F)(F)F)c4)c3)cc2-c2ccncc2)c1` the GI50 (HOP-62 [1]; read-out: GI50) was 2.51 µM, the CC50 (HOP-62 [1]; [14]) was > 100 µM and the TGI (HOP-62 [1]; read-out: TGI) was 13.1 µM. For the same compound, the GI50 (HOP-62 [1]; read-out: pGI50 (converted)) was 2.82 µM, the CC50 (HOP-62 [1]; [15]) was > 100 µM and the TGI (HOP-62 [1]; read-out: pTGI (converted)) was 13.2 µM. For the same compound, the IC50 (OVCAR-3 [2]) was 0.59 µM, the GI50 (OVCAR-3 [2]; read-out: GI50) was 0.502 µM and the CC50 (OVCAR-3 [2]; [14]) was > 100 µM. For the same compound, the TGI (OVCAR-3 [2]; read-out: TGI) was 45.7 µM, the GI50 (OVCAR-3 [2]; read-out: pGI50 (converted)) was 0.589 µM and the CC50 (OVCAR-3 [2]; [15]) was > 100 µM. For the same compound, the TGI (OVCAR-3 [2]; read-out: pTGI (converted)) was 4.57 µM, the GI50 (SN12C [3]; read-out: GI50) was 2.06 µM and the LC50 (SN12C [3]; read-out: LC50) was > 100 µM. The TGI (SN12C [3]; read-out: TGI) was 15.5 µM, the GI50 (SN12C [3]; read-out: pGI50 (converted)) was 2.04 µM and the LC50 (SN12C [3]; read-out: pLC50 (converted)) was > 100 µM. The TGI (SN12C [3]; read-out: pTGI (converted)) was 18.6 µM, the growth at 0.01 µM (CCRF-CEM) was 98% and the growth at 0.01 µM (HCC 2998) was 98%. The growth at 0.01 µM (MDA-MB-435) was 100%, the growth at 0.01 µM (SN12C [4]) was 101% and the growth at 0.01 µM (MDA-MB-468) was 94%. The growth at 0.1 µM (NCI-H460 [5]) was 102%, the growth at 0.1 µM (SF-295) was 57% and the growth at 0.1 µM (SNB-19 [6]) was 96%. For the same compound, the growth at 0.1 µM (NCI/ADR-RES) was 98%, the growth at 0.1 µM (CAKI-1) was 104% and the growth at 0.1 µM (DU-145 [7]) was 99%. The growth at 0.1 µM (MDA-MB-231) was 103%, the growth at 1 µM (HOP-62 [8]) was 85% and the growth at 1 µM (NCI-H322M) was 83%. It also gave a growth at 1 µM (NCI-H460 [9]) of 45%, a growth at 1 µM (COLO 205) of 79% and a growth at 1 µM (SF-268) of 79%. For the same compound, the growth at 1 µM (SK-MEL-2) was 85%, the growth at 1 µM (OVCAR-3 [10]) was 38% and the growth at 100 µM (SR) was -30%. The growth at 100 µM (HOP-62 [11]) was -41%, the growth at 100 µM (NCI-H226) was -22% and the growth at 100 µM (SF-539) was -72%. It also gave a growth at 100 µM (SNB-19 [12]) of -13%, a growth at 100 µM (UACC-257) of -72% and a growth at 100 µM (IGROV-1) of -12%. For the same compound, the growth at 100 µM (786-0) was -57%, the growth at 100 µM (A498) was -6% and the growth at 100 µM (DU-145 [13]) was 7%.

With `O=C(Nc1cccc(-n2cc(-c3ccncc3)c(-c3cc(O)cc(Cl)c3)n2)c1)Nc1ccc(Cl)c(Cl)c1` the GI50 (HOP-62 [1]; read-out: GI50) was 2.52 µM, the CC50 (HOP-62 [1]; [14]) was > 100 µM and the TGI (HOP-62 [1]; read-out: TGI) was 85.1 µM. The GI50 (HOP-62 [1]; read-out: pGI50 (converted)) was 2.82 µM, the CC50 (HOP-62 [1]; [15]) was > 100 µM and the TGI (HOP-62 [1]; read-out: pTGI (converted)) was 8.51 µM. For the same compound, the IC50 (OVCAR-3 [2]) was 1.96 µM, the GI50 (OVCAR-3 [2]; read-out: GI50) was 1.96 µM and the CC50 (OVCAR-3 [2]; [14]) was > 100 µM. The TGI (OVCAR-3 [2]; read-out: TGI) was 50.5 µM, the GI50 (OVCAR-3 [2]; read-out: pGI50 (converted)) was 1.95 µM and the CC50 (OVCAR-3 [2]; [15]) was > 100 µM. For the same compound, the TGI (OVCAR-3 [2]; read-out: pTGI (converted)) was 5.01 µM, the GI50 (SN12C [3]; read-out: GI50) was 2.78 µM and the LC50 (SN12C [3]; read-out: LC50) was > 100 µM. The TGI (SN12C [3]; read-out: TGI) was 10.1 µM, the GI50 (SN12C [3]; read-out: pGI50 (converted)) was 2.75 µM and the LC50 (SN12C [3]; read-out: pLC50 (converted)) was > 100 µM. For the same compound, the TGI (SN12C [3]; read-out: pTGI (converted)) was 18.2 µM, the growth at 0.01 µM (CCRF-CEM) was 96% and the growth at 0.01 µM (HCC 2998) was 104%. It also gave a growth at 0.01 µM (MDA-MB-435) of 96%, a growth at 0.01 µM (SN12C [4]) of 100% and a growth at 0.01 µM (MDA-MB-468) of 92%. The growth at 0.1 µM (NCI-H460 [5]) was 97%, the growth at 0.1 µM (SF-295) was 87% and the growth at 0.1 µM (SNB-19 [6]) was 95%. The growth at 0.1 µM (NCI/ADR-RES) was 105%, the growth at 0.1 µM (CAKI-1) was 98% and the growth at 0.1 µM (DU-145 [7]) was 104%. For the same compound, the growth at 0.1 µM (MDA-MB-231) was 85%, the growth at 1 µM (HOP-62 [8]) was 97% and the growth at 1 µM (NCI-H322M) was 59%. The growth at 1 µM (NCI-H460 [9]) was 58%, the growth at 1 µM (COLO 205) was 101% and the growth at 1 µM (SF-268) was 89%. The growth at 1 µM (SK-MEL-2) was 56%, the growth at 1 µM (OVCAR-3 [10]) was 85% and the growth at 100 µM (SR) was -30%. The growth at 100 µM (HOP-62 [11]) was -3%, the growth at 100 µM (NCI-H226) was -41% and the growth at 100 µM (SF-539) was -52%. The growth at 100 µM (SNB-19 [12]) was -26%, the growth at 100 µM (UACC-257) was -92% and the growth at 100 µM (IGROV-1) was -12%. It also gave a growth at 100 µM (786-0) of -58%, a growth at 100 µM (A498) of -79% and a growth at 100 µM (DU-145 [13]) of -31%.
